The text below walks through data of ChEMBL document CHEMBL3856244, “Hydrogen peroxide derived from marine peroxy sesquiterpenoids induces apoptosis in HCT116 human colon cancer cells” (Bioorg Med Chem Lett, 2016).

Test [1] has as its system HCT-116. In words: Induction of ROS generation in human HCT116 cells at 12.5 uM after 5 mins by DCFH-DA probe based fluorescence assay relative to control. The class given is functional, cell-based.
A short description of test [2]: Cytotoxicity against human HCT116 cells assessed as decrease in cell viability after 17 hrs by MTT assay. It is filed as functional, cell-based. The conditions noted are these: HCT-116, 17 h.
Test [3] deals with HCT-116. In words: Cytotoxicity against human HCT116 cells assessed as decrease in cell viability at 6.25 to 200 uM after 17 hrs by MTT assay. It is filed as functional, cell-based. In general terms: Formazan colour is commonly taken as a measure of viable cells.
Test [4] concerns HCT-116. Kind of test: Induction of apoptosis in human HCT116 cells assessed as nuclear condensation at 100 uM after 48 hrs by Hoechst 33342 staining based assay. The class given is functional, cell-based.
In test [5] the test system is HCT-116. In words: Induction of apoptosis in human HCT116 cells assessed as increase in caspase 3/7 activation at 50 to 200 uM after 17 hrs by luciferase coupled luminescence assay. It is filed as functional, cell-based.
The test system of test [6] is HCT-116. Kind of test: Induction of H2O2 accumulation in human HCT116 cells at 12.5 uM relative to control. The class given is functional.

Active and inactive are the calls of the source. The rule behind the calls is not given here.

What is called IC50 is the midpoint of a concentration-inhibition curve. As to `Cc1ccc2c(c1)[C@H](C(C)C)CC[C@@]2(C)OO`, the outcome with HCT-116 [1], in the test with HCT-116 [3], in the test on HCT-116 [4] and in the test with HCT-116 [5] was Active. In test [2], the IC50 came out at 43.7 µM. For the same compound, in the test on HCT-116 [6], the “fold change (FC)” value was 2 - 3.
Turning to `CC(C)[C@H]1CC[C@H](C)[C@@]23CC[C@@](C)(C=C12)OO3`, the outcome in the test with HCT-116 [1], with HCT-116 [3], in the test on HCT-116 [4] and with HCT-116 [5] was Active. Besides, in test [2], the IC50 came out at 38.6 µM. For the same compound, the “fold change (FC)” value in the test on HCT-116 [6] is listed as 2 - 3.
Regarding `CC1=C[C@@H]2C(=CC1)[C@](C)(OO)CC[C@@H]2C(C)C`, the outcome with HCT-116 [1], with HCT-116 [3], with HCT-116 [4] and in the test on HCT-116 [5] was Active. For the same compound, the IC50 in test [2] was 61.2 µM. In addition, the “fold change (FC)” value with HCT-116 [6] is listed as 2 - 3.
